The source of these data is patent publication US11266616B2, “Compositions and methods for inhibiting kinase activity” (BRANDEIS UNIVERSITY, priority 2016, dated 2022).

Positions count from the first letter of the chain named.

Data set [1] concerns the target T1, dephosphorylated Aurora A kinase (Homo sapiens, UniProt O14965).
T1 construct: Codon-optimized Aurora A^122-403 in pET28a and untagged λPP in T7-7 plasmid were co-transformed in BL21(DE3) cells; inferred from pET28a and the NiNTA column) (cleaved yes); made in house; host or cells: E. coli BL21(DE3), co-expressed with lambda protein phosphatase
T1 sequence (O14965 122-403): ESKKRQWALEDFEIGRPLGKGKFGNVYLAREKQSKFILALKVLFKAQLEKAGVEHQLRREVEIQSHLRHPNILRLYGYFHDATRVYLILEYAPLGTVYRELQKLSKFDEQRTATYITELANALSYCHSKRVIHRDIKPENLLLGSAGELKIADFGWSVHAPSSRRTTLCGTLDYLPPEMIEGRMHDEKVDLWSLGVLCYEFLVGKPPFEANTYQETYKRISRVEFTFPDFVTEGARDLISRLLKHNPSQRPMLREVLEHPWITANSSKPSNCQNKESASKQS
In words: Isothermal titration calorimetry (ITC) binding to dephosphorylated Aurora A kinase. Here is the method:
(§1) Titrations were carried out using Nano ITC isothermal titration calorimeter (TA Instruments) and analyzed via the NanoAnalyze software using the independent fit model. Injectant was added in 1 μl volume, every 180 s, with a constant stirring speed at 350 rpm and at 25° C. Prior to ITC titration, both protein and TPX2 or monobody were dialyzed/resuspended in ITC buffer (20 mM TrisHCl, 200 mM NaCl, 3% (vol/vol) glycerol, 1 mM TCEP, pH 7.50).
(Isothermal titration calorimetry measures the heat released or taken up as one component is titrated into another.)

Data set [2] relates to dephosphorylated Aurora A kinase-TPX2 chimera. The data set can be described thus: ITC binding to dephosphorylated Aurora A kinase-TPX2 chimera. On the set-up: species or system human. The conditions noted are these: PIF pocket occupied by TPX2; relative to Aurora A kinase alone. Here is the method: as §1
Data set [3] deals with T2, Aurora A kinase (Homo sapiens, UniProt O14965).
T2 construct: Codon-optimized Aurora A^122-403 in pET28a and untagged λPP in T7-7 plasmid were co-transformed in BL21(DE3) cells; inferred from pET28a and the NiNTA column) (cleaved yes); made in house; host or cells: E. coli BL21(DE3)
T2 sequence (O14965 122-403): T1 sequence (O14965 122-403)
The data set can be described thus: In vitro kinase assay (HPLC-based / ATP/NADH-coupled) of peptide substrate phosphorylation. In kind it is biochemical. The conditions noted are these: phosphorylated Aurora A, AP peptide, FIG. 20. The procedure:
(§2) Aurora A, either phosphorylated/dephosphorylated wild type or mutant protein, was mixed with either AP ([…]) (SEQ ID NO: 5), Kemptide (LRRASLG) (SEQ ID NO: 6), or Lats2 ([…]) (SEQ ID NO: 7), in the absence or presence of 50 μM TPX2 in kinase buffer (20 mM TrisHCl, 200 mM NaCl, 3% [vol/vol] glycerol, 20 mM MgCl2, 1 mM TCEP, pH 7.50). These substrates comprise the consensus sequence for Aurora A ([R/K/N]—R—X—[S/T]-B where B is any hydrophobic residue with the exception of Pro) (Ferrari et al., 2005, Biochem. J., 390(Pt 1):293-302; Ohashi et al., 2006, Oncogene, 25:7691-7702; Sardon et al., 2010, EMBO Reports, 11:977-984). Peptides were ordered through Genscript. For HPLC-based activity assays the following protocol was used. The reaction was initiated with the addition of 5 mM ATP. Then 5 μl time points were collected, resuspended in 10 μl 6% (vol/vol) trichloroacetic acid (in water) to quench the reaction, and neutralized with 50 μl 100 mM KH2PO4, pH 8.0 to provide the appropriate pH for nucleotide separation. The mixture was then passed through a 0.22 μm SpinX column to remove any protein precipitation. Reverse phase-high performance liquid chromatography (RP-HPLC) and an ACE 5 C18-AR, 100 Å pore size column, were used to separate nucleotides as well as peptides. For nucleotide runs, 2 μl of the aforementioned mixture was sufficient for analysis, whereas for the peptide runs the optimal injection volume was 20 μl. Nucleotide runs were routinely performed to ensure no unproductive hydrolysis was occurring during the experiment. An isocratic elution run in 100 mM KH2PO4, pH 6.0 was performed for this purpose. For the peptide runs, a gradient of 0-30% of elution buffer lasting 10 min at 0.4 mL/min was sufficient to separate phosphorylated from non-phosphorylated species. The running buffer was 0.1% TFA (vol/vol) in water, while the elution buffer was 100% acetonitrile. Lastly, to ensure full saturation of Aurora A by TPX2 and test these proteins were well behaved, a dose-dependence curve of the effect of TPX2 on Aurora A was obtained.
(§3) For ATP/NADH-coupled assay-based reaction, the following protocol was used. Phosphorylation of different concentrations of Lats2 peptide was monitored using the ATP/NADH coupled assay in a 96-well plate format. Reactions were carried in the presence of 1 μM dephosphorylated or 0.05 μM phosphorylated Aurora and 5 mM ATP in assay buffer (20 mM TrisHCl, 200 mM NaCl, 20 mM MgCl2, 10% (v/v) glycerol, 1 mM TCEP, pH 7.50) at 25° C.

Data set [4] addresses T3, Aurora A kinase (Homo sapiens, UniProt O14965, T288V).
T3 construct: Codon-optimized Aurora A^122-403 in pET28a and untagged λPP in T7-7 plasmid were co-transformed in BL21(DE3) cells; made in house; host or cells: E. coli BL21(DE3)
T3 sequence (O14965 122-403 T288V): T1 sequence (O14965 122-403) with T167V
Described as above. The class given is biochemical. The following applies: dephosphorylated Aurora A (T288V mutant), AP peptide, FIG. 20. The procedure:
as §2, §3

`CO[C@@H](C(=O)N1Cc2[nH]nc(NC(=O)c3ccc(N4CCN(C)CC4)cc3)c2C1)c1ccccc1` [danusertib, reference compound]: in data set [1] (Aurora A pre-saturated with activating monobody Mb54 (aka Mb1), FIG. 10C), the “weakening of binding affinity of danusertib” value stood at 19 fold. The “tightening of binding affinity of danusertib” value in data set [1] (Aurora A pre-saturated with inhibiting monobody Mb60 (aka Mb2), FIG. 10C) worked out at 4.7 fold. Also, in data set [1] (saturating levels of PS48 vs none), the “binding of danusertib to Aurora A tighter in the presence of PS48” value is recorded as “about 2 times”. For the same molecule, the “binding of danusertib to Aurora A kinase chimera weaker than binding to Aurora A kinase” value in data set [2] is on record as “about 4 times”.
As to “TPX2: naturally occurring allosteric activator of Aurora A kinase, binds the PIF pocket (MSQVKSSYSYDAPSDFINFSSLDDEGDTQNIDSWFEEKANLENKL) [reference compound]”, the “effect of TPX2 binding on kinase activity” value in data set [3] is recorded as “only slightly increased”; in data set [4] it was “greatly increased”.
